What was measured:
[1] = system: LAD2 cells; assay: β-hexosaminidase release induced by C48/80 in LAD2 cells; format: cell-based, Human; conditions: for IC50: Homo sapiens, LAD2, read-out: Experimental pIC50 (converted); for antiallergic activity (β-hexosaminidase release inhibition): LAD2 cells, 10 μmol/L
[2] = system: LAD2 cells; assay: LAD2 cell viability; format: cell-based, Human; conditions: 10 μmol/L
[3] = system: mice; assay: skin toluidine blue staining; format: in vivo; conditions: 10 mg/kg, C48/80
[4] = system: LAD2 cells; assay: IL-8 release induced by C48/80; format: cell-based, Human; conditions: LAD2 cells, 1, 5 and 10 μmol/L
[5] = system: mice; assay: paw swell and Evans blue extravasation induced by C48/80; format: in vivo; conditions: gavage, 1, 5 and 10 mg/kg
[6] = system: LAD2 cells; assay: histamine release in vitro induced by C48/80; format: cell-based, Human; conditions: 1 to 10 μmol/L
[7] = system: mice; assay: serum histamine release in vivo after C48/80; conditions: mice, 1, 5 and 10 mg/kg
[8] = system: C57BL/6 mice; assay: OVA-induced antigen-induced pulmonary inflammation; format: in vivo; conditions: AIPI mice
[9] = system: MRGPRX2-HEK293 cells; assay: intracellular Ca2+ mobilization assay; format: cell-based; conditions: MRGPRX2-HEK293 cells, 1, 5, 10 μmol/L
[10] = system: mice; assay: body temperature after C48/80; format: in vivo; conditions: 10 mg/kg
[11] = target: T1, MRGPRX2 (Homo sapiens, UniProt Q96LB1); conditions: cited from earlier work
T1 sequence (Q96LB1 1-330): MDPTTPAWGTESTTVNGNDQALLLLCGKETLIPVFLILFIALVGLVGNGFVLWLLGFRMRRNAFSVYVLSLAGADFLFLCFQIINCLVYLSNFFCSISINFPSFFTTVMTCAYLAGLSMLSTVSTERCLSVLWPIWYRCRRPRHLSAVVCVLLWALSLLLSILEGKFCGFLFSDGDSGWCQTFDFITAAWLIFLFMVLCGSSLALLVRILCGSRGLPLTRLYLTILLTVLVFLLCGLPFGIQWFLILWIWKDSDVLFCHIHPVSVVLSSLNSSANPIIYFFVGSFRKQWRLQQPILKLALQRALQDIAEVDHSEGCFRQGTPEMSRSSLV

SMILES: O=C(Nc1ccccc1)Nc1cc(Br)cc(C(F)(F)F)c1 [Compound A-1023, 1-(3-bromo-5-(trifluoromethyl)phenyl)-3-phenylurea]
- IC50 [1]: 7.94 µM

SMILES: O=C(Nc1ccc(C(F)(F)F)cc1)Nc1cccc(Br)c1 [Compound A-2023, 1-(3-bromophenyl)-3-(4-(trifluoromethyl)phenyl) urea]
- cytotoxicity on LAD2 cells [2]: much higher toxicity
- IC50 [1]: 1.23 µM

SMILES: O=C(Nc1ccccc1)Nc1ccc(C(F)(F)F)cc1 [Compound A-3023]
- cytotoxicity on LAD2 cells [2]: attenuated cytotoxicity
- IC50 [1]: 8.32 µM
- antiallergic activity (β-hexosaminidase release inhibition) ([1]; C48/80): much more potent than A-4023

SMILES: O=C(Nc1ccccc1)Nc1cccc(C(F)(F)F)c1 [Compound A-4023]
- cytotoxicity on LAD2 cells [2]: attenuated cytotoxicity

SMILES: O=C(Nc1ccccc1)Nc1cccc(Br)c1 [Compound A-5023]
- cytotoxicity on LAD2 cells [2]: no antiallergic activity or cytotoxicity
- IC50 [1]: 21.9 µM
- antiallergic activity (β-hexosaminidase release inhibition) ([1]; C48/80): no antiallergic activity

SMILES: O=C(Nc1ccc([N+](=O)[O-])cc1)Nc1ccc(C(F)(F)F)cc1 [Compound B-1023]
- local skin mast cell deformation and degranulation (toluidine blue) [3]: reduced mast cell deformation and degranulation
- cytotoxicity on LAD2 cells [2]: nontoxic
- IL-8 release induced by C48/80 [4]: reduced the IL-8 release
- IC50 [1]: 0.17 µM
- inhibition of β-hexosaminidase release ([1]; LAD2 cells, 1, 5 and 10 μmol/L, C48/80): the most potential antiallergic ability
- hindpaw swelling and Evans blue exudation rates [5]: decreased in a dose-dependent manner
- histamine release from LAD2 cells induced by C48/80 [6]: inhibited the histamine release
- serum histamine release [7]: reduced in a dose-dependent manner
- Th2 cytokine (IL-5 and IL-13) release in BALF [8]: obviously inhibited
- airway hyperresponsiveness (AHR) triggered by Mch [8]: suppressed the AHR
- number of bronchoalveolar lavage fluid (BALF) cells [8]: inhibited
- lung lesions (HE, PAS, MASSON staining) ([8]; 5 mg/kg oral): exerted anti-AIPI effects
- lung lesions (HE, PAS, MASSON staining) ([8]; 10 mg/kg oral): significantly attenuated the pathological changes, with a better effect than that of Dex
- serum IgE release ([8]; 10 mg/kg oral): only partially weakened IgE release
- C48/80-induced intracellular calcium mobilization [9]: dose-dependently reduced
- body temperature drop induced by C48/80 [10]: significantly attenuated the body temperature drop

SMILES: O=C(Nc1ccc(C(F)(F)F)cc1)Nc1cccc([N+](=O)[O-])c1 [Compound B-2023]
- IC50 [1]: 0.363 µM

SMILES: O=C(Nc1ccc([N+](=O)[O-])cc1)Nc1cccc(C(F)(F)F)c1 [Compound B-3023]
- IC50 [1]: 0.832 µM

SMILES: O=C(Nc1cccc([N+](=O)[O-])c1)Nc1cccc(C(F)(F)F)c1 [Compound B-4023]
- IC50 [1]: 0.288 µM

SMILES: O=C(Nc1ccc(C(F)(F)F)cc1)Nc1ccc(S(=O)(=O)O)cc1 [Compound B-6023]
- antiallergic activity (β-hexosaminidase release inhibition) ([1]; C48/80): inactivity

SMILES: C[C@@H]1C[C@H]2[C@@H]3CCC4=CC(=O)C=C[C@]4(C)[C@@]3(F)[C@@H](O)C[C@]2(C)[C@@]1(O)C(=O)CO [Dexamethasone, reference compound]
- airway hyperresponsiveness (AHR) triggered by Mch [8]: suppressed the AHR
- lung lesions (HE, PAS, MASSON staining) ([8]; dose not given): improved lung lesions
- serum IgE release ([8]; dose not given): almost completely inhibited the excessive release of IgE

SMILES: CC(C)=CCOc1c2occc2cc2ccc(=O)oc12 [imperatorin]
- IC50 [11]: 50 µM

SMILES: C[C@H]1O[C@@H](O[C@H]2CC[C@@]3(C)[C@@H](CC[C@]4(C)[C@@H]3C=C[C@]35OC[C@@]6(CCC(C)(C)C[C@H]63)[C@@H](O)C[C@]54C)[C@]2(C)CO)[C@H](O)[C@@H](O[C@@H]2O[C@H](CO)[C@@H](O)[C@H](O)[C@H]2O)[C@H]1O [saikosaponin A]
- IC50 [11]: 640 µM

Source: article PMC11873639 (Acta Pharmaceutica Sinica. B, 2024)
